The values that follow come from patent publication US7371829B2, “Haptens, immunogens, antibodies and conjugates to ketamine and its metabolites” (Randox Laboratories Limited, priority 2002, dated 2008).

The test system of assay [1] is antiserum raised to immunogen C (hapten C-BSA), IgG fraction. Nature of the assay: Competitive ELISA microtiter plate assay for ketamine and norketamine (conjugate A, hapten A-HRP, as detection reagent). Type of assay: binding, sheep. To be noted: for IC50, CR = concentration of potential cross-reactant that causes 50% displacement of signal: potential cross-reactants, standards 0-500 ng/ml. The protocol: An aqueous solution of the immunogen prepared in Example 10 was formulated with Freund's Complete Adjuvant (FCA) to form an emulsion consisting of 4 mg/ml immunogen in 50% (v/v) FCA. Three sheep were immunised with this emulsion (1° immunisation), 0.25 ml being subcutaneously injected at each of four sites in the flank of each animal. The next immunisation (boost 1) contained 2 mg/ml immunogen and subsequent immunizations (boosts 2 to 11) contained 1 mg/ml immunogen. All boosts were emulsified in 50% (v/v) Freund's Incomplete Adjuvant (FIA) and were administered in the same manner as the 1° immunisation, at monthly intervals for 1 year. Blood sampling took place 7 to 14 days after each boost. Each sample was processed to produce antiserum, which was further purified by caprylic acid and ammonium sulfate precipitation to yield an immunoglobulin G (IgG) fraction. The IgG fraction was evaluated by competitive ELISA microtiter plate assay, as described in Example 16 below.
The wells of an enhanced binding 96 well polystyrene microtiter plate were coated with the IgG fraction of the antiserum raised to immunogen C (hapten C-BSA) (Example 10), diluted in 10 mM Tris, pH 8.5 (125 μl/well). The appropriate antibody coating dilution was determined using standard ELISA checkerboard techniques. The plate was incubated for 2 hours at 37° C., washed 4 times with Tris buffered saline containing Tween 20 (TBST) and tapped dry. Standard solutions of ketamine and norketamine were prepared in TBST at 0, 0.1, 0.5, 1, 5, 25, 100 and 500 ng/ml and 50 μl of each was added to the appropriate wells (FIG. 4). 75 μl of conjugate A (hapten A-HRP) (Example 11), diluted in Tris buffer (pH 7.2) containing EDTA, D-mannitol, sucrose, thimerosal and BSA, was added to each of the wells, as shown in FIG. 4. The appropriate dilution of conjugate was also determined using standard ELISA checkerboard techniques. The plate was incubated at 37° C. for 2 hours. Excess unbound conjugate was removed by washing 6 times over a 10 minute period with TBST.
125 μl of tetramethylbenzidine (TMB) substrate solution was added to each well of the plate that was then incubated for 15 to 20 minutes in the dark at room temperature. The reaction was terminated by addition of 125 μl 0.2M H2SO4 to each well. The absorbance was then measured at 450 nm using a microtiter plate reader.
In order to determine the specificity of the competitive ELISA for ketamine and norketamine, standard solutions were prepared in TBST at 0, 0.1, 0.5, 1, 5, 25, 100 and 500 ng/ml. Employing each series of standards in the ketamine competitive ELISA, calibration curves were generated and these were used to determine the cross-reactivity of the immunoassay with these substances. The results of this study are presented in Table 2, cross-reactivity of potential cross-reactants phencyclidine and dextromethorphan being calculated according to the following formula: % CR=IC50, Ketamine/IC50, CR×100
Where %CR is the percentage cross-reactivity, IC50, Ketamine is the concentration of ketamine that causes 50% displacement of signal and IC50, CR is the concentration of potential cross-reactant that causes 50% displacement of signal.
On the technique in general: ELISA stands for enzyme-linked immunosorbent assay.

The test system of assay [2] is Neogen kit antibodies developed against a ketamine hapten. To be noted: Neogen ELISA kit; cited from earlier work.
Assay [3] relates to antibodies against five epitopes of phencyclidine (PCP)-like molecules. To be noted: antibodies to PCP-like haptens conjugated to BSA; Table 2, page 475 of Owens et al; cited from earlier work.
The subject of assay [4] is antibodies to phenylcyclohexylamine derivative immunogens. To be noted: Abbott immunoassay, Table 3(c) at page 18; cited from earlier work.
Assay [5] deals with antibodies to PCP and other arylcyclohexylamines. To be noted: as indicated by high IC50 values, Table 1, page 667 of Owens et al; cited from earlier work.
[6] abbreviates: % CR=IC50, Ketamine/IC50, CR×100.
The mark [7] stands for this setting: antiserum to immunogen C, conjugate A.
[8] abbreviates: standard concentration 0.1 ng/ml.
Setting [9] is: standard concentration 0.5 ng/ml.
Where [10] appears, read: standard concentration 25 ng/ml.
Setting [11] is: standard concentration 100 ng/ml.
Where [12] appears, read: standard concentration 500 ng/ml.

A value given as a limit tells only on which side of the number the result lay.

Take `c1ccc(C2(N3CCCCC3)CCCCC2)cc1` [Phencyclidine]: in assay [1] (setting [6]), the “% CR = percentage cross-reactivity based on specificity to ketamine” value (“% CR = percentage cross-reactivity based” for short) is listed as less than 0.58%. Also, the “IC50, CR = concentration of potential cross-reactant that causes 50% displacement of signal” value in assay [1] is more than 500.0 ng/mL.

Regarding `NC1(c2ccccc2Cl)CCCCC1=O` (stereo not drawn) [Norketamine, [2-amino-2-(o-chlorophenyl)]cyclohexanone], in assay [1] (setting [7]), the “% CR = percentage cross-reactivity based” value was 138.1%. Further, the “IC50 = standard concentration which produces 50% B/B0” value in assay [1] (setting [7]) was 2.1 ng/mL. The “% B/B0” value came to 86.9% in assay [1] (setting [8]); 66.8% in assay [1] (setting [9]); 64.5% in assay [1] (standard concentration 1 ng/ml); 45.3% in assay [1] (standard concentration 5 ng/ml); 22.7% in assay [1] (setting [10]); 15.1% in assay [1] (setting [11]). In assay [1] (setting [12]), the “% B/B0” value came to 10.5%. Besides, the cross-reactivity in assay [2] is on record as 4.6%.

Consider `CNC1(c2ccccc2Cl)CCCCC1=O` (racemic) [Ketamine, (±)-2-(o-chlorophenyl)-2-(methylamino) cyclohexanone], for which the “% CR = percentage cross-reactivity based” value in assay [1] (setting [7]) came out at 100.0%. Also, the “IC50 = standard concentration which produces 50% B/B0” value in assay [1] (setting [7]) amounted to 2.9 ng/mL. Moreover, the “% B/B0” value in assay [1] (setting [8]) amounted to 92.1%; in assay [1] (setting [9]), 82.8%; in assay [1] (standard concentration 1 ng/ml), 67.9%; in assay [1] (standard concentration 5 ng/ml) it was 42.6%; in assay [1] (setting [10]), 25.0%; in assay [1] (setting [11]) it was 18.4%. Moreover, the “% B/B0” value in assay [1] (setting [12]) was determined as 11.6%. In addition, the cross-reactivity in assay [2] is reported as 100%; in assay [3], less than 0.6%; in assay [4], “does not cross-react significantly”; in assay [5], “low levels of cross-reactivity”.

With `COc1ccc2c(c1)[C@]13CCCC[C@@H]1[C@H](C2)N(C)CC3` [Dextromethorphan], the “% CR = percentage cross-reactivity based” value in assay [1] (setting [6]) is less than 0.58%. Also, the “IC50, CR = concentration of potential cross-reactant that causes 50% displacement of signal” value in assay [1] is more than 500.0 ng/mL.
